From ChEMBL document CHEMBL1697731, “Cheminformatics analysis of assertions mined from literature that describe drug-induced liver injury in different species” (Chem Res Toxicol, 2010) come the findings set out here.

Molecules are shown by their SMILES.

For data set [1], the system named is Hepatotoxicity. Kind of data set: Literature-mined compound from Fourches et al multi-species drug-induced liver injury (DILI) dataset, effect in humans. Particulars: human.
In data set [2] the test system is Hepatotoxicity. Kind of data set: Literature-mined compound from Fourches et al multi-species drug-induced liver injury (DILI) dataset, effect in rodents. Conditions: rodentia.
The test system of data set [3] is Hepatotoxicity. Kind of data set: Literature-mined compound from Fourches et al multi-species drug-induced liver injury (DILI) dataset, effect in non-rodents.

In the case of `CCN(CC)C(=S)[S][Na]` [DITIOCARB SODIUM], the Hepatotoxicity entry in data set [1] was “no drug-induced liver injury reported”; in data set [2], “drug-induced liver injury reported”; in data set [3] it was “no drug-induced liver injury reported”.

Turning to `CC(CCc1ccc(O)cc1)NCCc1ccc(O)c(O)c1` (stereo unspecified) [DOBUTAMINE], the Hepatotoxicity entry in data set [1] is recorded as “drug-induced liver injury reported”; in data set [2], “no drug-induced liver injury reported”; in data set [3], “drug-induced liver injury reported”.

Consider `CC(=O)O[C@@]12CO[C@@H]1C[C@H](O)[C@@]1(C)C(=O)[C@H](O)C3=C(C)[C@@H](OC(=O)[C@H](O)[C@@H](NC(=O)OC(C)(C)C)c4ccccc4)C[C@@](O)([C@@H](OC(=O)c4ccccc4)[C@H]21)C3(C)C.O.O.O` [DOCETAXEL], for which the Hepatotoxicity entry is given as “drug-induced liver injury reported” in data set [1], “drug-induced liver injury reported” in data set [2] and “no drug-induced liver injury reported” in data set [3].

As to `CC/C=C\C/C=C\C/C=C\C/C=C\C/C=C\C/C=C\CCC(=O)O` [DOCONEXENT], the Hepatotoxicity result in data set [1] was “drug-induced liver injury reported”; in data set [2], “drug-induced liver injury reported”; in data set [3] it was “no drug-induced liver injury reported”.

For the compound `NCCc1ccc(O)c(O)c1` [DOPAMINE], the Hepatotoxicity entry in data set [1] (Liver), in data set [2] (Liver) and in data set [3] (Liver) was “drug-induced liver injury reported” throughout.

`CN(C)CC/C=C1\c2ccccc2CSc2ccccc21` [DOTHIEPIN]: the figures for the Hepatotoxicity entry in data set [1], in data set [2] and in data set [3] were “drug-induced liver injury reported”, “no drug-induced liver injury reported” and “no drug-induced liver injury reported”, respectively.

On to `CN(C)CCC=C1c2ccccc2COc2ccccc21` [DOXEPIN], for which the Hepatotoxicity result in data set [1] is “drug-induced liver injury reported”; in data set [2] it was “no drug-induced liver injury reported”; in data set [3], “no drug-induced liver injury reported”.

As for `C[C@H]1O[C@@H](n2cc(F)c(=O)[nH]c2=O)[C@H](O)[C@@H]1O` [DOXIFLURIDINE], the Hepatotoxicity result was “drug-induced liver injury reported” in data set [1], “drug-induced liver injury reported” in data set [2] and “no drug-induced liver injury reported” in data set [3].

Turning to `COc1cccc2c1C(=O)c1c(O)c3c(c(O)c1C2=O)C[C@@](O)(C(=O)CO)C[C@@H]3O[C@H]1C[C@H](N)[C@H](O)[C@H](C)O1.Cl` [DOXORUBICIN HYDROCHLORIDE], the Hepatotoxicity result in data set [1] was “drug-induced liver injury reported”; in data set [2], “no drug-induced liver injury reported”; in data set [3], “no drug-induced liver injury reported”.

For the compound `COc1cccc2c1C(=O)c1c(O)c3c(c(O)c1C2=O)C[C@@](O)(C(=O)CO)C[C@@H]3O[C@H]1C[C@H](N)[C@H](O)[C@H](C)O1` [DOXORUBICIN], the Hepatotoxicity result in data set [1], in data set [2] and in data set [3] was “drug-induced liver injury reported” throughout.

As to `C[C@H]1c2cccc(O)c2C(=O)C2=C(O)[C@]3(O)C(=O)C(C(N)=O)=C(O)[C@@H](N(C)C)[C@@H]3[C@@H](O)[C@@H]21.O` [DOXYCYCLINE], the Hepatotoxicity entry in data set [1], in data set [2] and in data set [3] was “drug-induced liver injury reported” each time.

Consider `CC/C(=C(/c1ccc(OCCN(C)C)cc1)c1cccc(O)c1)c1ccccc1` [DROLOXIFENE], for which the Hepatotoxicity entry is “no drug-induced liver injury reported” in data set [1], “drug-induced liver injury reported” in data set [2] and “no drug-induced liver injury reported” in data set [3].
